The subject of data set [1] is Escherichia coli. The experiment in a line: Antibacterial activity against Escherichia coli harboring tolC deletion mutant assessed as reduction in microbial growth incubated for 16 hrs by serial dilution method. In kind it is functional.
The target in data set [2] is T1, UDP-N-acetylglucosamine 1-carboxyvinyltransferase (Escherichia coli K-12, UniProt P0A749). The experiment in a line: Inhibition of Escherichia coli K12 His-tagged MurA expressed in Escherichia coli BL21 cells using UNAG as substrate pre incubated for 15 mins followed by substrate addition and measured after 15 mins by microplate reader analysis.
T1 sequence (P0A749 whole entry): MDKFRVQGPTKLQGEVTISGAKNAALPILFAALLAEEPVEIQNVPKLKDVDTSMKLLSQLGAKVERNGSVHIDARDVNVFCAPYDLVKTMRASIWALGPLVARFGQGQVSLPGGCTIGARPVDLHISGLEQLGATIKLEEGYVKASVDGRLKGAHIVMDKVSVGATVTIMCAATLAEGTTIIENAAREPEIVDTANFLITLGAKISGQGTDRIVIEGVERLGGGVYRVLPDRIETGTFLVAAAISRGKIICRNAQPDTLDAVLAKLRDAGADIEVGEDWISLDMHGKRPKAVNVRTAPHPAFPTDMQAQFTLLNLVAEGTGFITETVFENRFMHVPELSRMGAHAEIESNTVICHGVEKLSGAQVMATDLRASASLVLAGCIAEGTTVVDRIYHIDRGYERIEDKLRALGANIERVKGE
Data set [3] relates to UDP-N-acetylglucosamine 1-carboxyvinyltransferase (Escherichia coli K-12), P0A749 [C115D]. The experiment in a line: Inhibition of Escherichia coli MurA C115D mutant using UNAG as substrate pre incubated for 15 mins followed by substrate addition and measured after 15 mins by microplate reader analysis. As to conditions: time 30.0 min.
UDP-N-acetylglucosamine 1-carboxyvinyltransferase (Escherichia coli K-12), P0A749 [C115D], sequence (P0A749 whole entry C115D): as the sequence (P0A749 whole entry) above, with C115D counted along it
In data set [4] the test system is Bacteria. The experiment in a line: Binding affinity to wild type U15-N labelled MurA (unknown origin) expressed in Escherichia coli at 500 uM using UNAG as substrate incubated for 90 to 150 mins by 15N-1H-HSQC NMR analysis. The note with it: time 90-150 min.
Data set [5] has as its system Staphylococcus aureus. In words: Antibacterial activity against Staphylococcus aureus Newman D2C NCTC 10833 assessed as reduction in microbial growth incubated for 16 hrs by serial dilution method. In kind it is functional.
For data set [6], the system named is Bacillus subtilis. In words: Antibacterial activity against Bacillus subtilis ATCC 6633 assessed as reduction in microbial growth incubated for 16 hrs by serial dilution method. In kind it is functional.
The target of data set [7] is T1, UDP-N-acetylglucosamine 1-carboxyvinyltransferase. In words: Inhibition of Escherichia colo K12 His-tagged MurA expressed in Escherichia coli BL21 cells using UNAG as substrate pre incubated for 10 mins followed by substrate addition and measured after 30 mins by microplate reader analysis.
For data set [8], the system named is Staphylococcus aureus. In words: Antibacterial activity against Staphylococcus aureus Newman assessed as reduction in microbial growth incubated for 16 hrs by serial dilution method. Format: functional.
Data set [9] addresses UDP-N-acetylglucosamine 1-carboxyvinyltransferase (Escherichia coli K-12) (UniProt P0A749). In words: Inhibition of Escherichia coli K12 His-tagged MurA expressed in Escherichia coli BL21 cells at 50 uM using UNAG as substrate pre incubated for 15 mins followed by substrate addition and measured after 15 mins by microplate reader analysis relative to control. The note with it: time 30.0 min.

Data set [10] has as its target UDP-N-acetylglucosamine 1-carboxyvinyltransferase (Escherichia coli K-12, UniProt P0A749, C115D). The experiment in a line: Inhibition of Escherichia coli MurA C115D mutant at 50 uM using UNAG as substrate pre incubated for 15 mins followed by substrate addition and measured after 15 mins by microplate reader analysis relative to control.
A short description of data set [11]: Drug uptake in Escherichia coli harboring tolC deletion mutant assessed per 1.6x10^9 cells at 10 uM incubated for 30 mins by LC analysis. Format: ADME. As to conditions: 0.5 h.
A short description of data set [12]: Drug uptake in Escherichia coli harboring tolC deletion mutant at 10 uM incubated for 30 mins by LC analysis. Format: ADME. As to conditions: 0.5 h.
The test system of data set [13] is Staphylococcus aureus. The experiment in a line: Antibacterial activity against methicillin resistant Staphylococcus aureus NRS119 assessed as reduction in microbial growth by CLSI based broth microdilution method. Format: functional.
For data set [14], the system named is Enterococcus faecalis. The experiment in a line: Antibacterial activity against Enterococcus faecalis ATCC 51299 assessed as reduction in microbial growth by CLSI based broth microdilution method. Format: functional.
In data set [15] the test system is Streptococcus pneumoniae. The experiment in a line: Antibacterial activity against Streptococcus pneumoniae ATCC 700677 assessed as reduction in microbial growth by CLSI based broth microdilution method. Format: functional.
The subject of data set [16] is Staphylococcus aureus. The experiment in a line: Antibacterial activity against methicillin resistant Staphylococcus aureus USA300 assessed as reduction in microbial growth by CLSI based broth microdilution method. Format: functional.
Data set [17] concerns Clostridioides difficile. In words: Antibacterial activity against Clostridioides difficile ATCC BAA1870 assessed as reduction in microbial growth incubated for 48 hrs by broth microdilution method. In kind it is functional.
Data set [18] concerns Staphylococcus aureus. The experiment in a line: Antibacterial activity against methicillin sensitive Staphylococcus aureus NRS107 assessed as reduction in microbial growth by CLSI based broth microdilution method. Format: functional.
For data set [19], the system named is Staphylococcus aureus. The experiment in a line: Antibacterial activity against vancomycin resistant Staphylococcus aureus 10 assessed as reduction in microbial growth by CLSI based broth microdilution method. Format: functional.
The test system of data set [20] is Bacteria. The experiment in a line: Binding affinity to wild type U15-N labelled MurA (unknown origin) expressed in Escherichia coli at 200 uM using UNAG as substrate incubated for 90 to 150 mins by 15N-1H-HSQC NMR analysis. As to conditions: time 90-150 min.

Structures are written as SMILES. Activity calls are given as the source filed them. No cut-off for these calls is given here.

UDP-N-acetylglucosamine 1-carboxyvinyltransferase (Escherichia coli K-12), sequence (P0A749 whole entry): as the sequence (P0A749 whole entry) above
UDP-N-acetylglucosamine 1-carboxyvinyltransferase (Escherichia coli K-12, UniProt P0A749, C115D), sequence (P0A749 whole entry C115D): as the sequence (P0A749 whole entry) above, with C115D counted along it

Regarding `C[C@@H]1O[C@@H]1P(=O)(O)O` [FOSFOMYCIN], the MIC in [1] was 89 µM; in data set [5] it was 17 µM. In data set [2], this compound showed an IC50 of 6.7 µM. Also, in data set [3], the inhibition result was “inactive”. Besides, the result in data set [4] was Active.

As to `O=C1/C(=N\O)CN(c2cccc(Cl)c2)N1c1cccc(Cl)c1`, the figures for the MIC in data set [6], in [1] and in [8] were 10 µg/mL, 4 µg/mL and 20 µg/mL, respectively. The compound further yielded a 50% inhibitory concentration (IC50) in data set [7] of 88.1 µM.

On to `O=C(Nc1ccc(-c2cn[nH]c2)cc1)C1CN(c2cccc(Cl)c2)N(c2cccc(Cl)c2)C1=O` (centres undefined), for which the figures for the inhibition in [9] and in [3] were 76.5% and 77.2%, respectively. Also, the half-inhibitory concentration (IC50) in data set [10] is 12.4 µM; in data set [2], 12.2 µM. In addition, the minimum inhibitory concentration (MIC) in data set [1] and in data set [5] was more than 40 µM throughout. The Drug uptake in [11] is 11 µM; in data set [12] it was 348 nM.

The compound `N#Cc1cnc(NC(=O)C2CN(c3cccc(Cl)c3)N(c3cccc(Cl)c3)C2=O)s1` (centres undefined) returned an inhibition in [9] of 70.8%. The minimal inhibitory concentration (MIC) in data set [13] was 16 µg/mL; in data set [14], more than 64 µg/mL; in data set [1] it was 10 µM; in data set [15] it was 32 µg/mL; in [16] it was 32 µg/mL; in [17], 32 µg/mL. Moreover, the minimal inhibitory concentration (MIC) in data set [5] worked out at 10 µM; in data set [18], 8 µg/mL; in data set [19], 8 µg/mL. In data set [2], this compound displayed a half-inhibitory concentration (IC50) of 10.9 µM. Further, the Drug uptake came out at 84 µM in data set [11] and 2560 nM in data set [12].

Take `O=C1NC(=O)c2cc(NC(=O)C3CN(c4cccc(Cl)c4)N(c4cccc(Cl)c4)C3=O)ccc21` (centres undefined): the inhibition came to 81.6% in [9] and 74% in data set [3]. Further, the results for the IC50 in [10] and in data set [2] were 12.7 µM and 11.3 µM, respectively. Besides, the MIC was 17 µM in [1] and more than 40 µM in data set [5]. Besides, the outcome in data set [20] was Active. Moreover, the Drug uptake in data set [11] worked out at 30 µM; in data set [12], 924 nM.

The values above are taken from ChEMBL document CHEMBL5537113, “Discovery of 1,2-diaryl-3-oxopyrazolidin-4-carboxamides as a new class of MurA enzyme inhibitors and characterization of their antibacterial activity” (Eur J Med Chem, 2023).
